{"source": "patent US20250127759A1", "about": "“METHODS AND DOSING REGIMENS COMPRISING A CDK2 INHIBITOR FOR THE TREATMENT OF CANCER” (PFIZER INC., priority 2021, published 2025)", "key": {"[1]": {"test_system": "phosphorylation of Rb at Ser807/811", "assay": "Modulation of pRb Ser807/811 in OVCAR3 cells", "assay_type": "cell-based", "settings": "Homo sapiens, OVCAR-3; enriched G1/S phase CCNE1-amplified OVCAR3 cells; mean; read-out: Modulation of pRB Serine 807/811 IC50", "description": "The cellular activity of PF-07104091 was evaluated by measuring phosphorylation of Rb at Ser807/811 following treatment of enriched G1/S phase CCNE1-amplified OVCAR3 ovarian carcinoma cells."}, "ST941PBR PDX": {"test_system": "ST941PBR PDX", "assay": "In vivo efficacy, palbociclib-resistant ST941PBR PDX model", "settings": "Day 28, 150 mg/kg BID PO, 150 mg/kg", "protocol": "Female NSG mice (Jackson Lab) were subcutaneously implanted with fragment (27 mm^3 to 64 mm^3 size) into the dorsal region. All mice for T47D, HCC1428 and ST941 PBR studies were supplemented with 8.5 μg/mL estradiol water (β-Estradiol Sigma-Aldrich, cat #E2758-5G) and gave ad libitum till end of study. For the in vivo efficacy studies, tumor volume and body weights were measured twice a week. Tumor volume was calculated using the [(Length×Width×Width)/2)] formula. TGI was calculated as 100*(1−ΔT/ΔC). The ΔC (ΔT) was obtained by subtracting the mean tumor burden in the vehicle (treated) group on the first day of treatment (Day 0) from the mean tumor burden in vehicle (treated) group on the assessment day. Statistical analysis was performed using ANCOVA when the mean tumor volume in vehicle treated mice reached tumor cutoff size.\nThe ST941 PBR palbociclib resistant model was obtained from XENOSTART™ LLC, San Antonio, Texas. We established model in house by continuous treatment of the ST941 PBR tumor bearing mice with PD-0332991 at 50 mg/kg, PO QD plus fulvestrant at 10 mg/kg, SC twice in the first week, then weekly thereafter. To propagate donors for the TGI study, tumors were transplanted to recipient mice. One week after the re-implantation, the recipient mice received continuous treatment with palbociclib plus fulvestrant (dosing schedule described above). After 1 to 2 serial in vivo propagation with the same treatment regimen, the resistant tumors in the range of 700 to 800 mm^3 were re-implanted for a study expansion. The remaining tumor fragments were viably frozen for future use.\nThe live donor mice were established by implanting ST941 PBR (p11) tumor fragments. Once reaching a range of 700 to 800 mm^3, the donor tumors were subsequently transplanted into secondary recipient mice for a study expansion. To maintain the resistant clones, the ST941 PBR tumor bearing mice were treated with PD-0332991 at 50 mg/kg, PO. QD plus fulvestrant at 10 mg/kg, SC twice in the first week, then weekly afterwards for 10 weeks. […] TGI was assessed on Day 28 post first dose."}, "MCF7 cells": {"test_system": "MCF7 cells", "assay": "Cell cycle distribution and DNA synthesis, MCF7", "assay_type": "cell-based", "settings": "72-hour treatment with 300 nM", "description": "(§1) The effect of PF-07104091 on cell cycle distribution and DNA synthesis was determined following 72-hour treatment with 300 nM PF-07104091."}, "[2]": {"test_system": "MCF7-PalboR (resistant to palbociclib)", "assay": "Proliferation inhibition, MCF7-PalboR", "assay_type": "cell-based", "settings": "168 h, read-out: Proliferation Inhibition IC50", "description": "Anti-proliferative activity was measured in cells treated for 7 days with PF-07104091 in OVCAR3 cells, Rb mutant NCI-H526 SCLC cells, and both HR-positive HER2-negative MCF7 and the subline MCF7-PalboR (resistant to palbociclib).\nThe MCF7-PalboR cell model is refractory to palbociclib-induced proliferative inhibition at doses up to […], which exceeds the concentration expected to inhibit CDK4 and CDK6."}, "T47D": {"test_system": "T47D", "assay": "In vivo efficacy, T47D breast cancer model", "parameters": "species or system mice", "settings": "Day 41, 150 mg/kg BID PO", "description": "The T47D model was established by implanting passage 3 tumor fragments into recipient mice. To establish the T47D donor mice, tumor cells (5×10^6 cell/mouse with 50% Cultrex® Basement Membrane Matrix) were subcutaneously implanted in female NSG mice. […] All mice received treatment continuously until Day 41. TGI was assessed on Day 41 post first dose."}, "NCI-H526 cells": {"test_system": "NCI-H526 cells", "assay": "Cell cycle distribution and DNA synthesis, NCI-H526", "assay_type": "cell-based", "settings": "72-hour treatment with 300 nM", "description": "as §1"}, "[3]": {"assay": "Phase 1/2a study, safety profile", "assay_type": "in vivo", "from_the_text": "DLTs will be assessed through Cycle 1 (28-day cycle with Day 29 laboratory assessments). For the purpose of dose escalation, the DLT observation period will be during the first cycle (28 days after the start of study treatment) in each participant. Severity of AEs will be graded according to Common Terminology Criteria for Adverse Events (CTCAE) version 5.0."}, "[4]": {"settings": "75 mg to 500 mg BID, all cohorts, as of data cutoff"}}, "note": "Marks after values point to notes of the source that are not given here.", "data": [{"smiles": "COCc1cc(C(=O)Nc2cc([C@H]3CC[C@@H](OC(=O)NC(C)C)C3)[nH]n2)n(C)n1", "note": "[PF-07104091, (1R,3S)-3-[3-({[3-(methoxymethyl)-1-methyl-1H-pyrazol-5-yl]carbonyl}amino)-1H-pyrazol-5-yl]cyclopentyl propan-2-ylcarbamate]", "values": [{"measurement": "IC50", "setting": "[1]", "value": 0.144, "unit": "µM"}, {"measurement": "TGI %", "setting": "ST941PBR PDX", "value": 34, "unit": "%"}, {"measurement": "cell cycle arrest", "setting": "MCF7 cells", "value": "significant G2/M arrest"}, {"measurement": "S phase (cell cycle distribution)", "setting": "MCF7 cells; p≤0.05 versus vehicle", "value": "Significant S phase reduction"}, {"measurement": "IC50", "setting": "[2]", "value": 0.68, "unit": "µM"}, {"measurement": "TGI %", "setting": "T47D", "value": "82* %"}, {"measurement": "cell cycle arrest", "setting": "NCI-H526 cells", "value": "significant G2/M arrest"}, {"measurement": "S phase (cell cycle distribution)", "setting": "NCI-H526 cells; p=0.057", "value": "trended towards significance"}, {"measurement": "DLTs related to PF-07104091 (number)", "setting": "[3]; [4]", "value": 15}, {"measurement": "SAEs related to PF-07104091 (number)", "setting": "[3]; [4]", "value": 21}, {"measurement": "deaths related to PF-07104091", "setting": "[3]; [4]", "value": "no deaths"}, {"measurement": "patients with at least one all-causality TEAE", "setting": "[3]; 70 out of 77 patients, across all doses", "value": 90.9, "unit": "%"}, {"measurement": "Grade 5 all-causality TEAEs (number)", "setting": "[3]; Dyspnoea at the 225 mg BID (Part A) dose", "value": "One"}, {"measurement": "Grade 3 or higher all-causality TEAE: anaemia", "setting": "[3]; across all doses", "value": 6.5, "unit": "%"}, {"measurement": "Grade 3 or higher all-causality TEAE: fatigue", "setting": "[3]; across all doses", "value": 10.4, "unit": "%"}, {"measurement": "Grade 3 or higher all-causality TEAE: hypokalaemia", "setting": "[3]; across all doses", "value": 5.2, "unit": "%"}, {"measurement": "Grade 3 or higher all-causality TEAE: nausea", "setting": "[3]; across all doses", "value": 7.8, "unit": "%"}, {"measurement": "Grade 3 or higher all-causality TEAE: neutrophil count decreased", "setting": "[3]; across all doses", "value": 23.4, "unit": "%"}, {"measurement": "Grade 3 or higher all-causality TEAE: white blood cell count decreased", "setting": "[3]; across all doses", "value": 14.3, "unit": "%"}, {"measurement": "all-causality TEAEs Grade 3 or higher", "setting": "[3]; across all doses", "value": 49.4, "unit": "%"}, {"measurement": "all-causality TEAE: anaemia", "setting": "[3]; across all doses, 77 patients", "value": 31.2, "unit": "%"}, {"measurement": "all-causality TEAE: decreased appetite", "setting": "[3]; across all doses, 77 patients", "value": 20.8, "unit": "%"}, {"measurement": "all-causality TEAE: diarrhoea", "setting": "[3]; across all doses, 77 patients", "value": 37.7, "unit": "%"}, {"measurement": "all-causality TEAE: fatigue", "setting": "[3]; across all doses, 77 patients", "value": 41.6, "unit": "%"}, {"measurement": "all-causality TEAE: nausea", "setting": "[3]; across all doses, 77 patients", "value": 68.8, "unit": "%"}, {"measurement": "all-causality TEAE: neutrophil count decreased", "setting": "[3]; across all doses, 77 patients", "value": 32.5, "unit": "%"}, {"measurement": "all-causality TEAE: vomiting", "setting": "[3]; across all doses, 77 patients", "value": 37.7, "unit": "%"}, {"measurement": "all-causality TEAE: white blood cell count decreased", "setting": "[3]; across all doses, 77 patients", "value": 23.4, "unit": "%"}, {"measurement": "patients who discontinued study treatment due to AEs", "setting": "[3]; all cohorts, as of data cutoff", "value": 4, "unit": "patients"}, {"measurement": "Grade 4 all-causality TEAE (number)", "setting": "[3]; neutrophil count decreased 500 mg BID (1A) and 75 mg BID (3/1) (1B), platelet count decreased 150 mg BID (1B), neutropenia 75 mg BID (1C)", "value": "Four"}]}]}
